We go through 1 molecule from patent publication US9101638B2, “Boronic acid derivatives and therapeutic uses thereof” (Rempex Pharmaceuticals, Inc., priority 2013, dated 2015).

The subject of experiment [1] is KP1004 (K-2). The experiment in a line: Potentiation of aztreonam, strain KP1004. The experiment is classed as cell-based. The note with it: minimum BLI concentration inhibiting growth with 4 μg/mL aztreonam.
The target of experiment [2] is T1, Chymase (Homo sapiens, UniProt P23946).
T1 construct: purchased Enzo Lifescience BML-SE281
T1 sequence (P23946 22-247): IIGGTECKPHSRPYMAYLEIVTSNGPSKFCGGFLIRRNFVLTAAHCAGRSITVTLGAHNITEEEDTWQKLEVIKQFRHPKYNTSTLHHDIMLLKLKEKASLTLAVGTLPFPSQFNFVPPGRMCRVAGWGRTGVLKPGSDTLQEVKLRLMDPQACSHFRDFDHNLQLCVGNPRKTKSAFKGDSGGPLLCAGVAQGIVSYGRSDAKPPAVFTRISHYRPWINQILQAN
The experiment in a line: Serine protease inhibition: chymase. The experiment is classed as biochemical, mammalian. The note with it: Table 8A, class symbols; read-out: IC50 Chymase. The procedure, abridged:
(§1)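 Each diluted enzyme preincubated 10 min at 37° C with compound at various concentrations in its own buffer, then its substrate added and absorbance or fluorescence followed 30 min. Reaction rates expressed relative to untreated control; AEBSF and leupeptin as positive controls.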

For experiment [3], the target named is SHV-12 (Klebsiella pneumoniae, UniProt P0AD64, E235K/G234S/L31Q). In words: Inhibition of nitrocefin cleavage by purified SHV-12. The experiment is classed as biochemical. As to conditions: nitrocefin reporter substrate, purified enzyme; read-out: Ki (SHV-12, NCF). The procedure, abridged: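 10 min RT preincubation, enzyme with inhibitor series in reaction buffer. Substrate nitrocefin; kinetic read 490 nm, 10 sec intervals, 10 min total.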

For experiment [4], the target named is T2, Dipeptidyl peptidase 8 (DPP8) (Homo sapiens, UniProt Q6V1X1).
T2 construct: purchased BPS Bioscience 80080
The experiment in a line: Serine protease inhibition: DPP8. The note with it: Table 8B; read-out: IC50 DPP8. The experiment is classed as biochemical, mammalian. The method, boiled down:
as §1

In experiment [5] the test system is PAM1154/KPC-2. In words: Biapenem potentiation in PAM1154/KPC-2 (MexAB-OprM lacking). The experiment is classed as cell-based, Pseudomonas aeruginosa. The procedure:
(§2) Efflux of BLIs from Pseudomonas aeruginosa by the MexAB-OprM efflux pump was also evaluated. […] Due to expression of KPC-2 both strains became resistant to biapenem. […] Potency of BLIs to potentiate biapenem in these strains was determined. […] The ratio of MPC64 values for each BLI in PAM1032/KPC-2 (efflux proficient) and PAM1154/KPC-2 (efflux deficient) was determined to generate the Efflux Index (EI).

Experiment [6] has as its target T3, Elastase (Sus scrofa, UniProt P00772).
T3 construct: purchased Calbiochem 324682
The experiment in a line: Serine protease inhibition: elastase. As to conditions: Table 8A, class symbols; read-out: IC50 Elastase. The experiment is classed as biochemical, mammalian. The procedure, abridged:
as §1

Experiment [7] concerns ECL1002. In words: Potentiation of aztreonam, strain ECL1002. The experiment is classed as cell-based. The note with it: minimum BLI concentration inhibiting growth with 4 μg/mL aztreonam.
The target in experiment [8] is T4, Dipeptidyl peptidase 7 (DPP7) (Homo sapiens, UniProt Q9UHL4).
T4 construct: purchased R&D Systems 3438-SE
The experiment in a line: Serine protease inhibition: DPP7. The experiment is classed as biochemical, mammalian. The note with it: Table 8B; read-out: IC50 DPP7. The method, boiled down:
as §1

Experiment [9] addresses T5, CathepsinA (Homo sapiens, UniProt P10619).
T5 construct: purchased R&D Systems 1049-SE
T5 sequence (P10619 29-480): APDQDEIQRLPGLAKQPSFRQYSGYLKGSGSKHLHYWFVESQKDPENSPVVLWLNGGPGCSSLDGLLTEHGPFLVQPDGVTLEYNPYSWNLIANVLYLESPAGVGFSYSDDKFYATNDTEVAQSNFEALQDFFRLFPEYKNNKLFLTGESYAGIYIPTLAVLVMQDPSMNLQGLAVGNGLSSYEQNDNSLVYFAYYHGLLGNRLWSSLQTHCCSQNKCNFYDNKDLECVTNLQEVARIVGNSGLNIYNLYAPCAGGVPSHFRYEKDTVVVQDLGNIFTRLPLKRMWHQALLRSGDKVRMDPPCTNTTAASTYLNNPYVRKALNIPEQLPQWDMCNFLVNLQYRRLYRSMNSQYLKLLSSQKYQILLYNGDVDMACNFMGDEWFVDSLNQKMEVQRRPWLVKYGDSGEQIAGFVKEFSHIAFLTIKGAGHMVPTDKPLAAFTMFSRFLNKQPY
In words: Serine protease inhibition: cathepsin A. The experiment is classed as biochemical, mammalian. As to conditions: Table 8B; read-out: IC50 CathepsinA. The method, boiled down:
as §1

In experiment [10] the test system is KP1009 (CTX-M-15). In words: Potentiation of tigemonam, strain KP1009. As to conditions: minimum BLI concentration inhibiting growth with 4 μg/mL tigemonam.
In experiment [11] the test system is ec308 (SHV-5). The experiment in a line: Potentiation of tigemonam, strain ec308. The experiment is classed as cell-based. As to conditions: minimum BLI concentration inhibiting growth with 4 μg/mL tigemonam.
The test system of experiment [12] is PAM1032/KPC-2. In words: Biapenem potentiation in PAM1032/KPC-2 (MexAB-OprM overexpressed). As to conditions: BLI potency to decrease biapenem MIC 64-fold, 32 to 0.5 μg/ml; efflux proficient strain. The experiment is classed as cell-based, Pseudomonas aeruginosa. The procedure:
as §2

The test system of experiment [13] is KP1005 (CTX-M-14). The experiment in a line: Potentiation of aztreonam, strain KP1005. The experiment is classed as cell-based.
For experiment [14], the system named is ec302 (TEM-10). The experiment in a line: Potentiation of aztreonam, strain ec302. The experiment is classed as cell-based.
The test system of experiment [15] is EC1010 (CMY-6). The experiment is classed as cell-based.
For experiment [16], the system named is ec308 (SHV-5). The experiment in a line: Potentiation of aztreonam, strain ec308. The experiment is classed as cell-based. As to conditions: minimum BLI concentration inhibiting growth with 4 μg/mL aztreonam.
Experiment [17] concerns the target T6, Plasmin (Homo sapiens, UniProt P00747).
T6 construct: Plasmin; MPBio; 19419890; purchased MPBio 19419890
The experiment in a line: Serine protease inhibition: plasmin. The experiment is classed as biochemical, mammalian. As to conditions: Table 8A, class symbols; read-out: IC50 Plasmin. The procedure, abridged:
as §1

For experiment [18], the target named is T7, Dipeptidyl peptidase 9 (DPP9) (Homo sapiens, UniProt Q86TI2).
T7 construct: purchased BPS Bioscience 80090
In words: Serine protease inhibition: DPP9. The note with it: Table 8B; read-out: IC50 DPP9. The experiment is classed as biochemical, mammalian. The method, boiled down: as §1

In experiment [19] the target is T8, CathepsinG (Homo sapiens, UniProt P08311).
T8 construct: purchased EMD Millipore 219373
T8 sequence (P08311 21-244): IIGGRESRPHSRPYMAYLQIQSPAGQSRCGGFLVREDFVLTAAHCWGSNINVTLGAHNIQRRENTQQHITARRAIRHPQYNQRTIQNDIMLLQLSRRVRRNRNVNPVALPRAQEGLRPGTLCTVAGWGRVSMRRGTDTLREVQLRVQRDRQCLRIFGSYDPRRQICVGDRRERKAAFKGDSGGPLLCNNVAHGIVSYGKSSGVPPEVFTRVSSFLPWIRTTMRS
The experiment in a line: Serine protease inhibition: cathepsin G. As to conditions: Table 8B. The experiment is classed as biochemical, mammalian. The method, boiled down:
as §1

Molecules are shown by their SMILES.

T7 sequence (Q86TI2 whole entry): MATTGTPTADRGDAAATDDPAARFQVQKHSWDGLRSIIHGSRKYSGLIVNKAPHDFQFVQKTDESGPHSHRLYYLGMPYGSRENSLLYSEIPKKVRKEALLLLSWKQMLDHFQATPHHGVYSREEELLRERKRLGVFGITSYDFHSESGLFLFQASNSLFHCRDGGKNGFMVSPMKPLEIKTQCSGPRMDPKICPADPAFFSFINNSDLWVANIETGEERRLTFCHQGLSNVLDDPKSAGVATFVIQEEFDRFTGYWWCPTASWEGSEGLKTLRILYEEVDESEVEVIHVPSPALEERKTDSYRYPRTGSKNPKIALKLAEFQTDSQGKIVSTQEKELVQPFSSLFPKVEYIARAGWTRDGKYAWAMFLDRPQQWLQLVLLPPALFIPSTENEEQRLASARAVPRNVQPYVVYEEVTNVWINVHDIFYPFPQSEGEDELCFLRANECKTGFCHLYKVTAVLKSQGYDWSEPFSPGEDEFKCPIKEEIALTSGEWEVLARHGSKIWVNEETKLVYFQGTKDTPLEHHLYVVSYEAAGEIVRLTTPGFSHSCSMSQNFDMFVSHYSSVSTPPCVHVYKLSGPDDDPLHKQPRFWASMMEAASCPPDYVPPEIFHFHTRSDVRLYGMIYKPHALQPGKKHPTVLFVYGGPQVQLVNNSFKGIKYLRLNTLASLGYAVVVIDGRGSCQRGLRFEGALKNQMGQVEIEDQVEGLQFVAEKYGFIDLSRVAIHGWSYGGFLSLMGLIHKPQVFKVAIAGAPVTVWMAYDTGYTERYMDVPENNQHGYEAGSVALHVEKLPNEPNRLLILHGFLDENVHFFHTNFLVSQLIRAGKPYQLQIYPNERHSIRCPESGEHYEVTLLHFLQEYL
T2 sequence (Q6V1X1 whole entry): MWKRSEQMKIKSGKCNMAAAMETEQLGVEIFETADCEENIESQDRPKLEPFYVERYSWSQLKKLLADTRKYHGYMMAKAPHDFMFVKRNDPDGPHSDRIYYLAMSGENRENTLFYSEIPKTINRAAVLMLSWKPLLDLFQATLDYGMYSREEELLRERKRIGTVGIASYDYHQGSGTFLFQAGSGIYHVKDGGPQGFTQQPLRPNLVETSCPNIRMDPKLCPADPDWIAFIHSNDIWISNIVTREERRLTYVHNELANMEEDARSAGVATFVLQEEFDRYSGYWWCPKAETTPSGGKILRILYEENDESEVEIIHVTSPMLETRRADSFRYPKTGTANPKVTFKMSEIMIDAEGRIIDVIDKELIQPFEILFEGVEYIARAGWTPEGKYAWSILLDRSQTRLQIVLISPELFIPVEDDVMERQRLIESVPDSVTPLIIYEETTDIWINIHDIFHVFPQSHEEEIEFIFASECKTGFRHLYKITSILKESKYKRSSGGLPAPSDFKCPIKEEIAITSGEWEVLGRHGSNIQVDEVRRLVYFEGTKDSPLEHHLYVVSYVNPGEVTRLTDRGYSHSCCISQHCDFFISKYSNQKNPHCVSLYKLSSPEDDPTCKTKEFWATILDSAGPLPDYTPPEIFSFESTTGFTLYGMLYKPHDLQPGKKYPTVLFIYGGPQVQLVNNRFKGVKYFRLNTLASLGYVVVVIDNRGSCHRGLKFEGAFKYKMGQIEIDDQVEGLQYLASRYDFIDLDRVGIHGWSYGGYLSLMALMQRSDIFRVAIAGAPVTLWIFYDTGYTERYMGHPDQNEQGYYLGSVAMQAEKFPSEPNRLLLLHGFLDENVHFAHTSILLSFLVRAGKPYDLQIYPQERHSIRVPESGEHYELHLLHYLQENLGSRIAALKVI
Sequence of SHV-12 (P0AD64 22-286 L31Q/G234S/E235K): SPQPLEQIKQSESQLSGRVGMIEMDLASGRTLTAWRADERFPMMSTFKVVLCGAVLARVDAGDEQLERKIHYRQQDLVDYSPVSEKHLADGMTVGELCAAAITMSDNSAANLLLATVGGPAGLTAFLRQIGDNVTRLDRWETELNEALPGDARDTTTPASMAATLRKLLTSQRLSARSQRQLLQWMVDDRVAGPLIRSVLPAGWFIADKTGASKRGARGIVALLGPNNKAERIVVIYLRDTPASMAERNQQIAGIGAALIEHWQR
T6 sequence (P00747 581-810 limits assumed, species assumed): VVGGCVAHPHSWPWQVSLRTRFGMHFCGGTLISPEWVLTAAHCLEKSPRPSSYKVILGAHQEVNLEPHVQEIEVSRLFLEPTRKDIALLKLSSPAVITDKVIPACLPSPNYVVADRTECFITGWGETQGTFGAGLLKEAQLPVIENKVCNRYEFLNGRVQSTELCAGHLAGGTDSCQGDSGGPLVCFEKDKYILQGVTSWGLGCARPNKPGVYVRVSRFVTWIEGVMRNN
T6 sequence (P00747 97-580 partner limits assumed, species assumed): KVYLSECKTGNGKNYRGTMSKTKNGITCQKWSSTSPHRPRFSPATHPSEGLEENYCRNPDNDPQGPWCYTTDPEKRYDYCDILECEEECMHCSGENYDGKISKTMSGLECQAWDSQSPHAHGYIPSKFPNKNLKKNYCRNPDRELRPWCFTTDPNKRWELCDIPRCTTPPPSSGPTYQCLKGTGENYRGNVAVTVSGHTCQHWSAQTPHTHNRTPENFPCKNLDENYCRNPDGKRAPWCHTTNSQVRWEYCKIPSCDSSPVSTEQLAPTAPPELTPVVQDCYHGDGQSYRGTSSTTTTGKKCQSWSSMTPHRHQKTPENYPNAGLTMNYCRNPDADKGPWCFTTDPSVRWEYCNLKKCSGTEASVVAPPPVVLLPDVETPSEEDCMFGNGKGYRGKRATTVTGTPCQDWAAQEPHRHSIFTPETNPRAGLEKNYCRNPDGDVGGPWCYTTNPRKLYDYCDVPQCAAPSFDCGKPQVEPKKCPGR
T3 sequence (P00772 27-266): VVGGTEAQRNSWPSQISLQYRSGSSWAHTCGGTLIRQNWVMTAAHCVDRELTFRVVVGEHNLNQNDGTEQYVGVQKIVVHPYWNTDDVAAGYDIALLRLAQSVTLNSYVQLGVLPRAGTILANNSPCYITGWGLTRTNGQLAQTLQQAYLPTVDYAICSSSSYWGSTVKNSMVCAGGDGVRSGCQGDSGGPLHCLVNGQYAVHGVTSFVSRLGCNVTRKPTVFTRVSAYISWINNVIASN

On to `O=C(CSC(F)F)N[C@H]1Cc2cccc(C(=O)O)c2OB1O` [Compound 3, (R)-3-(2-(difluoromethylthio)acetamido)-2-hydroxy-3,4-dihydro-2H-benzo[e][1,2]oxaborinine-8-carboxylic acid], for which, in experiment [1], the “AZT MPC4 K-2 KP1004” value was “Y (Y = MIC of 1 μg/mL to 10 μg/mL)”. For the same molecule, the IC50 in experiment [2] was 300 to 800 µM; in [4], more than 500 µM; in experiment [6], more than 800 µM; in experiment [8] it was more than 500 µM; in experiment [9], less than 15 µM; in experiment [17] it was more than 800 µM. For the same molecule, the IC50 in [18] is more than 500 µM; in experiment [19] it was less than 15 µM. For the same molecule, the Ki in [3] was less than 0.001 µM. The “PAM1154/KPC-2 Biapenem MPC64” value in experiment [5] is listed as “X (key: X = Less than 10; Y = 10 to 40; Z Greater than 40)”. Further, the “AZT MPC4 ECL1002” value in experiment [7] is on record as “Y (Y = MIC of 1 μg/mL to 10 μg/mL)”. The “TIG MPC4 CTX-M-15 KP1009” value in experiment [10] is reported as “X (X = MIC of less than 1 μg/mL)”. The “TIG MPC4 SHV-5 ec308” value in experiment [11] is on record as “X (X = MIC of less than 1 μg/mL)”. For the same molecule, in experiment [12], the “PAM1032/KPC-2 Biapenem MPC64” value is given as “Z (Z Greater than 40)”. Besides, the “AZT MPC4 CTX-M-14 KP1005” value in [13] was “X (key: X = MIC of less than 1 μg/mL; Y = MIC of 1 μg/mL to 10 μg/mL; Z = MIC of greater than 10 μg/mL)”. Also, the “AZT MPC4 TEM-10 ec302” value in experiment [14] is on record as “Y (key: X = MIC of less than 1 μg/mL; Y = MIC of 1 μg/mL to 10 μg/mL; Z = MIC of greater than 10 μg/mL)”. Besides, the “TIG MPC4 CMY-6 EC1010” value in experiment [15] is reported as “X (key: X = MIC of less than 1 μg/mL; Y = MIC of 1 μg/mL to 10 μg/mL; Z = MIC of greater than 10 μg/mL)”. Besides, the “AZT MPC4 SHV-5 ec308” value in [16] is on record as “X (X = MIC of less than 1 μg/mL)”.
